The record followed here is ChEMBL document CHEMBL1909046, “DrugMatrix in vitro pharmacology data”.

Series [1] concerns the target Matrix metalloproteinase-9 (Homo sapiens, UniProt P14780). The class given is cell-based.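 Further: inhibition of isolated MMP-9 enzyme activity toward a synthetic peptide substrate, from the DrugMatrix protease screening panel; in other assays of this panel Not Active means under 50% inhibition at 10 µM.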
In series [2] the target is T1, Caspase-1 (Homo sapiens, UniProt P29466).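 Further: Caspase-1 enzyme inhibition assay with a peptide substrate; in other assays of this panel Not Active means under 50% inhibition at 10 µM.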
T1 sequence (P29466 whole entry): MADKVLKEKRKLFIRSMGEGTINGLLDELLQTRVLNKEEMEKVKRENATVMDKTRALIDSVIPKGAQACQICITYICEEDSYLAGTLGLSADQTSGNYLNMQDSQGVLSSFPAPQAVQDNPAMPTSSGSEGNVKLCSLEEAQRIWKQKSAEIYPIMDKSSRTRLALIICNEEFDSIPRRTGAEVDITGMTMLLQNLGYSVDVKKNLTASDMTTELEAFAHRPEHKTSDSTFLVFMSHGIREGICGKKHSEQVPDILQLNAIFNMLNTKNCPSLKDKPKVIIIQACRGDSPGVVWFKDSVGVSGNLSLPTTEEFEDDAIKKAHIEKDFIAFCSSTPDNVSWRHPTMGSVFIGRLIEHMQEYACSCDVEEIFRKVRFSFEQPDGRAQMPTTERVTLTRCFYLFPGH
The arrangement: species or system Escherichia coli.

Series [3] concerns the target T2, Alpha-2A adrenergic receptor (Homo sapiens, UniProt P08913). Further: in other assays of this panel Not Active means under 50% inhibition at 10 µM.
T2 sequence (P08913 whole entry): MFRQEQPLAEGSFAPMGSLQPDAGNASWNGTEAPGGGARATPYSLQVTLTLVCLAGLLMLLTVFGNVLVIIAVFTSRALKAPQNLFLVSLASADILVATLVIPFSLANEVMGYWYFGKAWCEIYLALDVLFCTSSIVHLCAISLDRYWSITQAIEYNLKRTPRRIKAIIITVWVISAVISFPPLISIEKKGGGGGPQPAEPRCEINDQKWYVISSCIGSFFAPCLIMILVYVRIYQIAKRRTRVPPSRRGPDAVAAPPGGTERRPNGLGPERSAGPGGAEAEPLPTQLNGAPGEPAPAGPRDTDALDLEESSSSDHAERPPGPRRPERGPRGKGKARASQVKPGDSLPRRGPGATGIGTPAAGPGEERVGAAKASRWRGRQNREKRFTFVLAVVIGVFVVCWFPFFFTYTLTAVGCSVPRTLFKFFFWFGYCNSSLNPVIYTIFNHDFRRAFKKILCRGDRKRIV
In kind it is cell membranes, Sf9, Membrane. The note with it: for Ki: read-out: Ki.

Series [4] in a line: DRUGMATRIX: Interleukin IL-1 radioligand binding (ligand: [125I] interleukin 1beta). To be noted: nih3t3; Not Active = under 50% inhibition at 10 µM. The class given is cell membranes, Membrane.
For series [5], the target named is C-C chemokine receptor type 5 (Homo sapiens, UniProt P51681). In kind it is cell membranes, HEK293, Membrane. The note with it: hek293. Further: in other assays of this panel Not Active means under 50% inhibition at 10 µM.
Series [6] deals with T3, Cytochrome P450 2A6 (Homo sapiens, UniProt P11509).
T3 sequence (P11509 whole entry): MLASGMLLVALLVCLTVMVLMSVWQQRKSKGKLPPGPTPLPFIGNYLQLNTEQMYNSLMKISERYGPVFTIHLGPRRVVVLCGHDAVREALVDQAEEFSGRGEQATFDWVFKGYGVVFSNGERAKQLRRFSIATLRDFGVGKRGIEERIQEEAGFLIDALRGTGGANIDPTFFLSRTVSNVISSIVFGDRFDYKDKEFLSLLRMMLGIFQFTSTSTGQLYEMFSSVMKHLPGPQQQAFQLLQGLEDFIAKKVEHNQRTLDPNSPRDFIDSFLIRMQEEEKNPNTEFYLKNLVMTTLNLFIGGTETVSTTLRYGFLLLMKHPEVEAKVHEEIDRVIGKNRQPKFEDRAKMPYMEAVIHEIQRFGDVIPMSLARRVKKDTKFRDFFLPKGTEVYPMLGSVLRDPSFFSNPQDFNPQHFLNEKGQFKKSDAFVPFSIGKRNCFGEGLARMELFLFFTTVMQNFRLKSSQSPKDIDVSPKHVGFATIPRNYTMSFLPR
The note with it: bti-tn-5b1-4.

Series [7] in a line: DRUGMATRIX: beta-Lactamase enzyme inhibition (substrate: Nitrocefin). To be noted: Not Active = under 50% inhibition at 10 µM. Also noted: species or system Bacillus cereus.
For series [8], the target named is Mitogen-activated protein kinase 1 (Homo sapiens, UniProt P28482). Description: DRUGMATRIX: Protein Serine/Threonine Kinase, ERK2 enzyme inhibition (substrate: Myelin Basic Protein). Also noted: species or system Escherichia coli. To be noted: Not Active = under 50% inhibition at 10 µM.
Mitogen-activated protein kinase 1, sequence (P28482 whole entry): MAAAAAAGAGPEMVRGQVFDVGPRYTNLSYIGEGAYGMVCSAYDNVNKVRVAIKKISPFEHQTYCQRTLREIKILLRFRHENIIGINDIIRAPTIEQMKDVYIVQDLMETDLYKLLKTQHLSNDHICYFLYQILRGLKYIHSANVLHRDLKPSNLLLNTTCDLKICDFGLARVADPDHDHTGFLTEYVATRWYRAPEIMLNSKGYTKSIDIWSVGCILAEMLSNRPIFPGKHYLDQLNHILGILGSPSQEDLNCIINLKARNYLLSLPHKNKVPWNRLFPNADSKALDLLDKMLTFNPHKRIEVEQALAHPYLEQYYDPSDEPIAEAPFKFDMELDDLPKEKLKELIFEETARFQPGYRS

C-C chemokine receptor type 5, sequence (P51681 whole entry): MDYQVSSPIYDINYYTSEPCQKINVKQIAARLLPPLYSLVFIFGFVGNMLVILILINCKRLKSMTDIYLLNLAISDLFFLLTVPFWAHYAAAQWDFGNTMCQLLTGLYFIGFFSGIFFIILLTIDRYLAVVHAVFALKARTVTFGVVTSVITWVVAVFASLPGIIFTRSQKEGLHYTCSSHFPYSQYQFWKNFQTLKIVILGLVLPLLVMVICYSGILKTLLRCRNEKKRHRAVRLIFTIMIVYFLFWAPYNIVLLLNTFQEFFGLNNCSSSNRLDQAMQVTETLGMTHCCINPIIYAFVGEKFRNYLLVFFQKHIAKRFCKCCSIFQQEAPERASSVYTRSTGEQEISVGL
Matrix metalloproteinase-9, sequence (P14780 whole entry): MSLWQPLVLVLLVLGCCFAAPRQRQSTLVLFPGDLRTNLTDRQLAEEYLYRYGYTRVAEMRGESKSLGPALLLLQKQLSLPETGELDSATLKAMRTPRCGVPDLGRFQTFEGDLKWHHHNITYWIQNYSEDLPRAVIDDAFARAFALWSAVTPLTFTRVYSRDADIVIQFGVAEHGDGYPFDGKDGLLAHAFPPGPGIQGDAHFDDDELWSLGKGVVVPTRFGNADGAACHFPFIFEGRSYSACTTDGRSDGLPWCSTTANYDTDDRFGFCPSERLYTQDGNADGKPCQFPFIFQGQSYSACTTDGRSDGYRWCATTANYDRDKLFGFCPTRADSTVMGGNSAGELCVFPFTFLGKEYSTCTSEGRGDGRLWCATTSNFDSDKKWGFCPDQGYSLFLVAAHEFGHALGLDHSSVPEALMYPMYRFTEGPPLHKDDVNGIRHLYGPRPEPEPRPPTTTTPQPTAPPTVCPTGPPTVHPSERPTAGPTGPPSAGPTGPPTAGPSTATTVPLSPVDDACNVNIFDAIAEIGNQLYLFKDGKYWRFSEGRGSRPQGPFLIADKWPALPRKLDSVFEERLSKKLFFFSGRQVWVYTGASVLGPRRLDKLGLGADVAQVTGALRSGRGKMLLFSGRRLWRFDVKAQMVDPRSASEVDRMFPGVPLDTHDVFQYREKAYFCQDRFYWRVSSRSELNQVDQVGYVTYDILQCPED

With `C[C@]12CC[C@@H](O)C[C@@H]1CC[C@@H]1[C@@H]2CC[C@]2(C)C(=O)CC[C@@H]12` [ANDROSTERONE], the Ki entry in series [1], in series [4], in series [6] and in series [7] was “Not Active” throughout. For the same compound, the half-maximal inhibitory concentration (IC50) entry in series [2], in series [3] (sf9), in series [4], in series [5], in series [6] and in series [7] was “Not Active” in each case. Further, the half-maximal inhibitory concentration (IC50) entry in series [8] is listed as “Not Active”.
Turning to `NCC(CC(=O)O)c1ccc(Cl)cc1` (configuration not stated) [BACLOFEN], the IC50 entry in series [1], in series [2], in series [3] (sf9), in series [4], in series [5] and in series [6] was “Not Active” throughout. The IC50 entry in series [7] and in series [8] was “Not Active” in each case. Moreover, the inhibition constant Ki result in series [4], in series [6] and in series [7] was “Not Active” throughout.
Consider `O=C(O)CO` [GLYCOLIC ACID], for which the IC50 result in series [1], in series [2], in series [3] (sf9), in series [4], in series [5] and in series [6] was “Not Active” throughout. Also, the IC50 entry in series [7] and in series [8] was “Not Active” each time. Further, the Ki result in series [4], in series [6] and in series [7] was “Not Active” in each case.
With `COc1ccccc1OCCNCC(O)COc1cccc2[nH]c3ccccc3c12` (configuration not stated) [CARVEDILOL], the concentration for half-maximal inhibition (IC50) result is “Not Active” in series [1]; “Not Active” in series [2]; 0.106 µM in series [3] (read-out: IC50); “Not Active” in series [4]; “Not Active” in series [5]; “Not Active” in series [6]. Moreover, the IC50 result in series [7] and in series [8] was “Not Active” in each case. The Ki in series [3] is 0.04 µM; in series [4], “Not Active”; in series [6], “Not Active”; in series [7], “Not Active”.
Take `O=C(NCCN1CCOCC1)c1ccc(Cl)cc1` [MOCLOBEMIDE]: the half-maximal inhibitory concentration (IC50) entry in series [1], in series [2], in series [3] (sf9), in series [4], in series [5] and in series [6] was “Not Active” throughout. The 50% inhibitory concentration (IC50) result in series [7] and in series [8] was “Not Active” each time. Besides, the Ki entry in series [4], in series [6] and in series [7] was “Not Active” throughout.
With `C=CCO` [ALLYL ALCOHOL], the IC50 entry in series [1], in series [2], in series [3] (sf9), in series [4], in series [5] and in series [6] was “Not Active” throughout. For the same compound, the IC50 result in series [7] and in series [8] was “Not Active” throughout. Besides, the Ki result in series [4], in series [6] and in series [7] was “Not Active” throughout.
Consider `CC(C)Cc1ccc([C@H](C)C(=O)O)cc1` [DEXIBUPROFEN], for which the half-maximal inhibitory concentration (IC50) entry in series [1], in series [2], in series [3] (sf9), in series [4], in series [5] and in series [6] was “Not Active” in each case. The IC50 result in series [7] and in series [8] was “Not Active” in each case. For the same compound, the inhibition constant Ki entry in series [4], in series [6] and in series [7] was “Not Active” throughout.
`O=c1[nH]cnc2c1ncn2[C@H]1CC[C@@H](CO)O1` [DIDANOSINE]: the IC50 result in series [1], in series [2], in series [3] (sf9), in series [4], in series [5] and in series [6] was “Not Active” each time. The IC50 entry in series [7] and in series [8] was “Not Active” each time. Further, the Ki entry in series [4], in series [6] and in series [7] was “Not Active” each time.
For `CC1(COc2ccc(CC3SC(=O)NC3=O)cc2)CCCCC1` (configuration not stated) [CIGLITAZONE], the half-maximal inhibitory concentration (IC50) entry in series [1] is “Not Active”; in series [2], “Not Active”; in series [3] (read-out: IC50), 16.6 µM; in series [4], “Not Active”; in series [5], “Not Active”; in series [6] it was “Not Active”. Also, the IC50 entry in series [7] and in series [8] was “Not Active” in each case. For the same compound, the Ki is 6.21 µM in series [3], “Not Active” in series [4], “Not Active” in series [6] and “Not Active” in series [7].
In the case of `CC(=O)Nc1ccc2c(c1)Cc1ccccc1-2` [2-ACETYLAMINOFLUORENE], the 50% inhibitory concentration (IC50) entry is “Not Active” in series [1]; “Not Active” in series [2]; 21.1 µM in series [3] (read-out: IC50); “Not Active” in series [4]; “Not Active” in series [5]; “Not Active” in series [6]. The IC50 result in series [7] and in series [8] was “Not Active” throughout. Further, the Ki in series [3] is 7.9 µM; in series [4] it was “Not Active”; in series [6], “Not Active”; in series [7], “Not Active”.
Regarding `C[C@H](C(=O)O)c1ccc2oc(-c3ccc(F)cc3)nc2c1` [FLUNOXAPROFEN], the IC50 entry in series [1], in series [2], in series [3] (sf9), in series [4], in series [5] and in series [6] was “Not Active” throughout. The IC50 entry in series [7] and in series [8] was “Not Active” in each case. The inhibition constant (Ki) entry in series [4], in series [6] and in series [7] was “Not Active” throughout.
For the compound `CC(C)Cn1cnc2c(N)nc3ccccc3c21` [IMIQUIMOD], the IC50 result in series [1], in series [2], in series [3] (sf9), in series [4], in series [5] and in series [6] was “Not Active” throughout. The IC50 entry in series [7] and in series [8] was “Not Active” throughout. The Ki result in series [4], in series [6] and in series [7] was “Not Active” throughout.
For the compound `OC[C@H]1OC2C3[C@@H](CO)OC(O[C@H]4[C@H](O)[C@@H](O)[C@@H](O[C@H]5[C@H](O)[C@@H](O)[C@@H](O[C@H]6[C@H](O)[C@@H](O)[C@@H](O[C@H]7[C@H](O)[C@@H](O)[C@@H](O[C@H]8[C@H](O)[C@@H](O)[C@@H](O[C@H]9[C@H](O)[C@@H](O)C(OC1[C@H](O)[C@H]2O)O[C@@H]9CO)O[C@@H]8CO)O[C@@H]7CO)O[C@@H]6CO)O[C@@H]5CO)O[C@@H]4CO)[C@H](O)[C@H]3O`, the IC50 entry in series [1], in series [2], in series [3] (sf9), in series [4], in series [5] and in series [6] was “Not Active” in each case. In addition, the IC50 entry in series [7] and in series [8] was “Not Active” each time. The inhibition constant Ki result in series [4], in series [6] and in series [7] was “Not Active” throughout.
Turning to `CCN1CCN(c2cc3c(cc2F)c(=O)c(C(=O)O)cn3C2CC2)CC1` [ENROFLOXACIN], the IC50 entry in series [1], in series [2], in series [3] (sf9), in series [4], in series [5] and in series [6] was “Not Active” throughout. Besides, the IC50 result in series [7] and in series [8] was “Not Active” in each case. Besides, the Ki result in series [4], in series [6] and in series [7] was “Not Active” throughout.
